Assay results published in patent US20250115598A1 (Anaxis Pharma Pty Ltd, priority 2021, published 2025).
pIC50, pKd: −log10 of the molar value.

Assays:
[1] = target: human MLKL (full length) (Homo sapiens (Human), UniProt Q8NB16); assay: KINOMEscan binding assay, human MLKL (full length); conditions: hMLKL, Table 25; read-out: MLKL (KD)
How it was run: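 Kd values come from dose-response fits to the Hill equation (Hill slope −1, Levenberg–Marquardt least squares). Compound competed with bead-bound ligand for tagged kinase, and remaining kinase was measured by qPCR after elution. Dilution series: 11 points, 3-fold, 1% DMSO final, top 30,000 nM in most runs.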

[2] = target: endogenous MLKL in U937 (Homo sapiens (Human), UniProt Q8NB16); assay: Degradation assay: endogenous MLKL in U937 (western blot); conditions: U937, 24 h incubation, read-out: Degradation of endogenous MLKL in U937 (DC50 cell-based assay)
Procedure: Degradation Assay: Screening Compounds Procedure to Evaluate the Activity of Compounds in Degrading Endogenous MLKL in Human and Mouse Cell
The mouse dermal fibroblast (MDF) cell line was seeded the day before the experiment in a 24-well plate at a cell density of […] per well in a volume of 0.5 mL per well and left to attach overnight. The human monocyte cell line (U937) was seeded on the day of the experiment in a 24-well plate at a cell density of […] per well in a volume of 0.5 mL per well.
The compound was diluted in DMSO with a starting concentration of 10 mM and titrated stepwise with a dilution of 1:5. 0.5 μL of the compound dilution was added to the appropriate well to achieve a final concentration of 10; 2; 0.4; 0.08 and 0.016 μM. A DMSO only well was included as control.
The cells were incubated for 24 h in the presence of the compound at 37° C. and 10% CO2.
After the 24 h incubation period, the medium was removed and cells washed with 0.5 mL PBS. The cells were then lysed directly in 60 μL of 1×SDS gel loading buffer.
The cell lysate was heat-denatured at […] for 10 min. 10 μL of lysate per well were run on 18-well 4-15% Criterion TGX stain free gels (BIO-RAD). The proteins were then transferred onto nitrocellulose membrane with a wet transfer protocol in the Criterion Blotter (BIO-RAD).
Membranes were blocked with 5% skim milk in TBST. Primary antibody against MLKL (clone 3H1, MABC604 Merck) was used at 1:2000 dilution in TBST with 1% BSA and left shaking over night at 4° C. After washes with TBST, the membranes were incubated with goat anti-rat IgG HRP-conjugated antibody (Southern Biotech) in 1% skim milk TBST at 1:10000 dilution for 1 h at room temperature. After TBST washes the bands were imaged on the ChemiDoc MP Imaging System (BIO-RAD) with Immobilion Western Chemiluminescent HRP Substrate Forte (Millipore). The loading control GAPDH was probed for with rabbit anti-GAPDH (CST 14C10) at 1:2000 dilution in 1% BSA TBST over night at 4° C. TBST washes were followed by incubation with goat anti-rabbit IgG HRP-conjugated antibody (Southern Biotech) in 1% skim milk TBST at 1:10000 dilution for 1 h at room temperature followed by TBST washes. The signal was detected as described above.
The band intensity was measured in the ImageLab Software (BIO-RAD) and the MLKL values adjusted for loading with GAPDH. The percentage of degradation was calculated by normalizing the compound treated values to the DMSO only control.

[3] = test system: Immortalised Mouse Dermal Fibroblasts (MDFs); assay: Cellular assay: inhibition of TSI induced necroptosis, CellTitre-Glo viability; conditions: Mus musculus, Fibroblast; MDF, 3 hours TSI cocktail, Table 27; read-out: Inhibition of TSI-induced necroptosis (IC50 cell-based assay) in MDF
How it was run: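 Necroptosis induced for 3 h with TSI: rhTNF 100 ng/ml, Smac mimetic 500 nM, caspase inhibitor IDN-6556 10 μM. Mouse dermal fibroblasts had received compound (36 μM top, ten three-fold steps) 30 min beforehand. ATP-based viability scaled between untreated and TSI-only wells; IC50 taken as 4-parameter curve inflection.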

[4] = target: endogenous MLKL in MDF (Mus musculus (Mouse), UniProt Q9D2Y4); assay: Degradation assay: endogenous MLKL in MDF (western blot); conditions: MDF cells, 24 h incubation with compound, MLKL adjusted for loading with GAPDH, normalized to DMSO only control, read-out: Degradation of endogenous MLKL in MDF (DC50 cell-based assay)
How it was run: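 Western blot band intensity of MLKL, adjusted to GAPDH loading and normalized to DMSO-only wells, gave percent degradation. Compound exposure lasted 24 h at final concentrations of 10–0.016 μM in 1:5 steps, in mouse dermal fibroblasts or human U937 cells.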

Chain of endogenous MLKL in MDF (Q9D2Y4 whole entry): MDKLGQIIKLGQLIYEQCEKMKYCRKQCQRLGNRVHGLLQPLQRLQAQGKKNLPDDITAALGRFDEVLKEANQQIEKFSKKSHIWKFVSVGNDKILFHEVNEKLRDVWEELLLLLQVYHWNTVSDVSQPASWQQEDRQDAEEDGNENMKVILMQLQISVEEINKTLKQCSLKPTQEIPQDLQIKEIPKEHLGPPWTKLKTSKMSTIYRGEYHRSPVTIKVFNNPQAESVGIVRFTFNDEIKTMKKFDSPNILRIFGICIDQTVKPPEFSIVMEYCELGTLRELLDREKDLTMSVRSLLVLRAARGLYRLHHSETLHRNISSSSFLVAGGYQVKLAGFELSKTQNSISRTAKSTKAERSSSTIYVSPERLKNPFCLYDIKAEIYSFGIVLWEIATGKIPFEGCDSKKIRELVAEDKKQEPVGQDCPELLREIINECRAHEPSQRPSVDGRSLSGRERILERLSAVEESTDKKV
Chain of endogenous MLKL in U937 (Q8NB16 whole entry): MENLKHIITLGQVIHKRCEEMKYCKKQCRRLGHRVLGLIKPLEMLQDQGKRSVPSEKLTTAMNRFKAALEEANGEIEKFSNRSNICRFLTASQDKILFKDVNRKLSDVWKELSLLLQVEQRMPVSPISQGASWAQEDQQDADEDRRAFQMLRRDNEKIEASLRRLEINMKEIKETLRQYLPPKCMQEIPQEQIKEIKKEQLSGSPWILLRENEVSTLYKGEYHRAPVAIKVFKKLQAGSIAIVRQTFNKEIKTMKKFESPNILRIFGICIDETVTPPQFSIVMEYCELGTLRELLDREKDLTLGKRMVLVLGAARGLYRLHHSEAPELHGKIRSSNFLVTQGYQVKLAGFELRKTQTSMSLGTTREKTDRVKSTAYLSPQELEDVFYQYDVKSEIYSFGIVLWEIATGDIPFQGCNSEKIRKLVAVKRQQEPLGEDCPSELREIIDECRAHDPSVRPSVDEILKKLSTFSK
Chain of human MLKL (full length) (Q8NB16 whole entry): as above

| pKd [1] | DC50 [2] | DC50 [4] | SMILES | pIC50 [3] |
| --- | --- | --- | --- | --- |
| > 8.00 | 1000 to 10000 nM | < 1000 nM | C[C@H](Oc1cc(-c2nn(C)c3c(-c4cnn(C5CCN(C(=O)CC6CCN(c7cccc8c7C(=O)N(C7CCC(=O)NC7=O)C8=O)CC6)CC5)c4)cnc(N)c23)ccc1NS(=O)(=O)C(F)F)c1ccc(F)cc1 (stereo partly drawn) [Compound 1048, N-[4-(4-amino-7-{1-[1-(2-{1-[2-(2,6-dioxopiperidin-3-yl)-1,3-dioxo-2,3-dihydro-1H-isoindol-4-yl]piperidin-4-yl}acetyl)piperidin-4-yl]-1H-pyrazol-4-yl}-1-methyl-1H-pyrazolo[4,3-c]pyridin-3-yl)-2-[(1S)-1-(4-fluorophenyl)ethoxy]phenyl]-1,1-difluoromethanesulfonamide] | > 6.00 |
| 6.00 to 8.00 | 1000 to 10000 nM | < 1000 nM | C[C@H](Oc1cc(-c2nn(C)c3c(-c4cnn(C5CCN(C(=O)C6CN(c7cccc8c7C(=O)N(C7CCC(=O)NC7=O)C8=O)C6)CC5)c4)cnc(N)c23)ccc1NS(=O)(=O)C(F)F)c1ccc(F)cc1 (stereo partly drawn) [Compound 1051, N-(4-{4-amino-7-[1-(1-{1-[2-(2,6-dioxopiperidin-3-yl)-1,3-dioxo-2,3-dihydro-1H-isoindol-4-yl]azetidine-3-carbonyl}piperidin-4-yl)-1H-pyrazol-4-yl]-1-methyl-1H-pyrazolo[4,3-c]pyridin-3-yl}-2-[(1S)-1-(4-fluorophenyl)ethoxy]phenyl)-1,1-difluoromethane-sulfonamide] | 5.00 to 6.00 |
| 6.00 to 8.00 | < 1000 nM | < 1000 nM | C[C@H](Oc1cc(-c2nn(C)c3c(-c4cnn(C5CCN(C(=O)C6CCN(c7cccc8c7C(=O)N(C7CCC(=O)NC7=O)C8=O)C6)CC5)c4)cnc(N)c23)ccc1NS(=O)(=O)C(F)F)c1ccc(F)cc1 (stereo partly drawn) [Compound 1054, N-(4-{4-amino-7-[1-(1-{1-[2-(2,6-dioxopiperidin-3-yl)-1,3-dioxo-2,3-dihydro-1H-isoindol-4-yl]pyrrolidine-3-carbonyl}piperidin-4-yl)-1H-pyrazol-4-yl]-1-methyl-1H-pyrazolo [4,3-c]pyridin-3-yl}-2-[(1S)-1-(4-fluorophenyl)ethoxy]phenyl)-1,1-difluoromethanesulfonamide] | > 6.00 |
| 6.00 to 8.00 | < 1000 nM | 1000 to 10000 nM | Cc1ncsc1-c1ccc(CNC(=O)[C@@H]2C[C@@H](O)CN2C(=O)[C@@H](NC(=O)C2(F)CC2)C(C)(C)C)c(OCCCCCCn2cc(-c3cnc(N)c4c(-c5ccc(NS(=O)(=O)C(F)F)c(O[C@@H](C)c6ccc(F)cc6)c5)nn(C)c34)cn2)c1 [Compound 1057, (2S,4R)-N-[(2-{[6-(4-{4-amino-3-[4-(difluoromethanesulfonamido)-3-[(1S)-1-(4-fluorophenyl)ethoxy]phenyl]-1-methyl-1H-pyrazolo[4,3-c]pyridin-7-yl}-1H-pyrazol-1-yl)hexyl]oxy}-4-(4-methyl-1,3-thiazol-5-yl)phenyl)methyl]-1-[(2S)-2-[(1-fluorocyclopropyl)formamido]-3,3-dimethylbutanoyl]-4-hydroxypyrrolidine-2-carboxamide] | 5.00 to 6.00 |
| 6.00 to 8.00 | 1000 to 10000 nM | < 1000 nM | C[C@H](Oc1cc(-c2nn(C)c3c(-c4cnn(C5CCN(C(=O)[C@H]6CC[C@H](Nc7cccc8c7C(=O)N(C7CCC(=O)NC7=O)C8=O)CC6)CC5)c4)cnc(N)c23)ccc1NS(=O)(=O)C(F)F)c1ccc(F)cc1 (stereo partly drawn) [Compound 1058, N-{4-[4-amino-1-methyl-7-(1-{1-[(trans)-4-{[2-(2,6-dioxopiperidin-3-yl)-1,3-dioxo-2,3-dihydro-1H-isoindol-4-yl]amino}cyclohexane-carbonyl]piperidin-4-yl}-1H-pyrazol-4-yl)-1H-pyrazolo[4,3-c]pyridin-3-yl]-2-[(1S)-1-(4-fluorophenyl)ethoxy]phenyl}-1,1-difluoromethanesulfonamide] | > 6.00 |
| 6.00 to 8.00 | 1000 to 10000 nM | < 1000 nM | Cc1ncsc1-c1ccc(CNC(=O)[C@@H]2C[C@@H](O)CN2C(=O)[C@@H](NC(=O)C2(F)CC2)C(C)(C)C)c(OCCCCCn2cc(-c3cnc(N)c4c(-c5ccc(NS(=O)(=O)C(F)F)c(O[C@@H](C)c6ccc(F)cc6)c5)nn(C)c34)cn2)c1 [Compound 1068, (2S,4R)-N-[(2-{[5-(4-{4-amino-3-[4-(difluoromethanesulfonamido)-3-[(1S)-1-(4-fluorophenyl)ethoxy]phenyl]-1-methyl-1H-pyrazolo[4,3-c]pyridin-7-yl}-1H-pyrazol-1-yl)pentyl]oxy}-4-(4-methyl-1,3-thiazol-5-yl)phenyl)methyl]-1-[(2S)-2-[(1-fluorocyclopropyl)formamido]-3,3-dimethylbutanoyl]-4-hydroxypyrrolidine-2-carboxamide] | 5.00 to 6.00 |
| 6.00 to 8.00 | < 1000 nM | < 1000 nM | C[C@H](Oc1cc(-c2nn(C)c3c(-c4cnn(C5CCN(C(=O)C6CC7(CCN(c8cccc9c8C(=O)N(C8CCC(=O)NC8=O)C9=O)CC7)C6)CC5)c4)cnc(N)c23)ccc1NS(=O)(=O)C(F)F)c1ccc(F)cc1 (stereo partly drawn) [Compound 1069, N-(4-{4-amino-7-[1-(1-{7-[2-(2,6-dioxopiperidin-3-yl)-1,3-dioxo-2,3-dihydro-1H-isoindol-4-yl]-7-azaspiro[3.5]nonane-2-carbonyl}piperidin-4-yl)-1H-pyrazol-4-yl]-1-methyl-1H-pyrazolo[4,3-c]pyridin-3-yl}-2-[(1S)-1-(4-fluorophenyl)ethoxy]phenyl)-1,1-difluoromethanesulfonamide] | > 6.00 |
| > 8.00 | < 1000 nM | < 1000 nM | C[C@H](Oc1cc(-c2nn(C)c3c(-c4cnn(C5CCN(C(=O)COC6CCN(c7cccc8c7C(=O)N(C7CCC(=O)NC7=O)C8=O)CC6)CC5)c4)cnc(N)c23)ccc1NS(=O)(=O)C(F)F)c1ccc(F)cc1 (stereo partly drawn) [Compound 1072, N-{4-[4-amino-7-(1-{1-[2-({1-[2-(2,6-dioxopiperidin-3-yl)-1,3-dioxo-2,3-dihydro-1H-isoindol-4-yl]piperidin-4-yl}oxy)acetyl]piperidin-4-yl}-1H-pyrazol-4-yl)-1-methyl-1H-pyrazolo[4,3-c]pyridin-3-yl]-2-[(1S)-1-(4-fluorophenyl)ethoxy]phenyl}-1,1-difluoromethane-sulfonamide] | 5.00 to 6.00 |
| 6.00 to 8.00 | < 1000 nM | < 1000 nM | C[C@H](Oc1cc(-c2nn(C)c3c(-c4cnn(C5CCN(C(=O)CC6CCCN(c7cccc8c7C(=O)N(C7CCC(=O)NC7=O)C8=O)C6)CC5)c4)cnc(N)c23)ccc1NS(=O)(=O)C(F)F)c1ccc(F)cc1 (stereo partly drawn) [Compound 1073, N-[4-(4-amino-7-{1-[1-(2-{1-[1,3-dioxo-2-(2-oxo-piperidin-3-2,3-yl)-dihydro-1H-isoindol-4-yl]piperidin-3-yl}acetyl)piperidin-4-yl]-1H-pyrazol-4-yl}-1-methyl-1H-pyrazolo[4,3-c]pyridin-3-yl)-2-[(1S)-1-(4-fluorophenyl)ethoxy]phenyl]-1,1-difluoromethanesulfonamide] | > 6.00 |
